Reference: patent publication US20240228499A1, “MASP-2 INHIBITORS AND METHODS OF USE” (Omeros Corporation, priority 2022, published 2024)
Counter-ions that a name gives are not always drawn.

Tests used:
[1] = molecular target: T1, MASP-2 (CCP1-CCP2-SP) (Homo sapiens, UniProt O00187); assay: Enzymatic assay for MASP-2 inhibitory activity (fluorogenic substrate); type: biochemical; conditions: room temperature, 20 mM Hepes pH 7.4, 20 min
T1 construct: 15 μL of Enzyme MASP-2 (CCP1-CCP2-SP) in Assay Buffer
Protocol: The MASP-2 assay utilizes a fluorogenic substrate, based on the cleavage site for its natural substrate C2. The assay was run at room temperature in an assay buffer containing 20 mM HEPES, pH 7.4, 140 mM NaCl and 0.1% Tween 20. Assay parameters were adjusted such that the assay was linear with respect to time, enzyme, and substrate concentrations. Under the optimized assays conditions, IC50 values were equivalent to Ki values, except in the few cases of “tight binding” inhibitors. Cases of “tight binding” or possible “slow binding” inhibitors were handled by the methods described in Copeland R. A. (2013) Evaluation of Enzyme Inhibitors in Drug Discovery. 2nd Ed., John Wiley and Sons, Inc., Chapters 5-7.
The MASP-2 assay protocol was carried out as follows. Test compounds were serially diluted in DMSO and then 100 nL of each dilution was transferred to the assay plate(s). 10 μL of Assay Buffer was added, followed by 15 μL of Enzyme MASP-2 (CCP1-CCP2-SP) in Assay Buffer. 15 μL of Substrate in Assay Buffer was then added and the mixture was mixed to start the reaction. After 20 min at room temperature, 15 μL of a stop solution (0.1 M acetic acid) was added, the sample was mixed, and the plates were read on a SpectraMax i3× Microplate Reader with the data exported as an Excel file. Each assay plate included a “no inhibitor” (DMSO only) control, a “no enzyme” control, and a reference inhibitor control. % Activity values=100*(average test comp. fluorescence−average “no enzyme” fluorescence)/(average “DMSO only” fluorescence−average “no enzyme” fluorescence). IC50 and Ki replicate values were very reproducible, with values well within +2-fold.

[2] = molecular target: T2, human a-thrombin (Homo sapiens, UniProt P00734); assay: Enzymatic assay for thrombin (fluorogenic peptide substrate Boc-VPR-AMC); type: biochemical; conditions: room temperature, 20 mM Hepes pH 7.4, 20 min
T2 construct: enzyme (human a-thrombin (BioPharm® Lab.)); purchased BioPharm Lab
Protocol: The thrombin assay utilizes a fluorogenic peptide substrate (Boc-VPR-AMC (R&D Systems) and was run at room temperature in an assay buffer containing 20 mM Hepes, pH 7.4, 140 mM NaCl and 0.1% Tween 20. Assay parameters were adjusted such that the assay was linear with respect to time, enzyme, and substrate concentrations. Under these optimized assays conditions, IC50 values were equivalent to Ki values, except in a few cases of “tight binding” inhibitors. Cases of “tight binding” or possible “slow binding” inhibitors were handled by the methods described in Copeland R.A. (2013) Evaluation of Enzyme Inhibitors in Drug Discovery. 2nd Ed. John Wiley and Sons, Inc., Chapters 5-7.
The thrombin assay protocol was carried out as follows. Test compounds were serially diluted in DMSO and then 100 nL of each dilution was transferred to the assay plate(s). 10 μL of Assay Buffer was added, followed by 15 μL of enzyme (human a-thrombin (BioPharm® Lab.)) in assay buffer. 15 μL of substrate in assay buffer was then added and the sample mixed to start the reaction. After 20 min at room temperature, 15 μL of a stop solution (0.1 M acetic acid) was added, the sample was mixed, and the plates were read on a SpectraMax® i3× Microplate Reader with the data exported as Excel files. Each assay plate included a “no inhibitor” (DMSO only) control, a “no enzyme” control, and a reference inhibitor control. % Activity values=100*(ave. test comp. fluorescence−ave. “no enz” fluorescence)/(ave. “DMSO only” fluorescence−ave. “no enz” fluorescence). IC50 and Ki values were very reproducible, with values falling well within +2-fold.

T1 sequence (O00187 287-686 limits assumed): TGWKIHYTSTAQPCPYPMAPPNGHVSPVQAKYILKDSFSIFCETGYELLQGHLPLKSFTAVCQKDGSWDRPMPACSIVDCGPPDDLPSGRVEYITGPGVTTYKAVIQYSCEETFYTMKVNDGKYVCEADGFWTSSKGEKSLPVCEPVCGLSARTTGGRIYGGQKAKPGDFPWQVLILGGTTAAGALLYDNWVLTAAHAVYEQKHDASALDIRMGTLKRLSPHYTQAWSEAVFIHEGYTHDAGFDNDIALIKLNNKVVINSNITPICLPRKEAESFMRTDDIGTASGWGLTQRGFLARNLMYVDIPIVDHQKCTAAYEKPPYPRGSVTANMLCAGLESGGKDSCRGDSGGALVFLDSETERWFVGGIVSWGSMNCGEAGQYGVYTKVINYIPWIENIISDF

| Compound | Ki [1] [nM] | Ki [2] [nM] |
| --- | --- | --- |
| Cc1cc(Cl)cc(CNc2cnc3n(c2=O)[C@H](C(=O)N[C@@H]2CCc4ncccc42)CC3)c1 [Compound 85, (S)-3-((3-chloro-5-methylbenzyl)amino)-N-((R)-6,7-dihydro-5H-cyclopenta[b]pyridin-5-yl)-4-oxo-4,6,7,8-tetrahydropyrrolo[1,2-a]pyrimidine-6-carboxamide] | < 500 | > 25000 |
| Nc1ccc2c(n1)CC[C@H]2NC(=O)[C@@H]1CCc2ncc(NCc3cccc(C(F)F)c3)c(=O)n21 [Compound 84, (S)-N-((R)-2-amino-6,7-dihydro-5H-cyclopenta[b]pyridin-5-yl)-3-((3-(difluoromethyl)benzyl)amino)-4-oxo-4,6,7,8-tetrahydro-pyrrolo[1,2-a]pyrimidine-6-carboxamide] | < 500 | 500 to 2500 |
| Cc1c(C#N)cccc1CNc1cnc2n(c1=O)[C@H](C(=O)N[C@@H]1CCc3nc(N)ccc31)CC2 [Compound 92, (S)-N-((R)-2-amino-6,7-dihydro-5H-cyclopenta[b]pyridin-5-yl)-3-((3-cyano-2-methylbenzyl)amino)-4-oxo-4,6,7,8-tetrahydro-pyrrolo[1,2-a]pyrimidine-6-carboxamide] | < 500 | 2500 to 10000 |
| COc1cc(Cl)cc(CNc2cnc3n(c2=O)[C@H](C(=O)NCc2ccc(N)nc2C)CC3)c1 [Compound 74, (S)-N-((6-amino-2-methylpyridin-3-yl)methyl)-3-((3-chloro-5-methoxybenzyl)amino)-4-oxo-4,6,7,8-tetrahydropyrrolo[1,2-a]pyrimidine-6-carboxamide] | < 500 | < 500 |
| Cc1cc(C)cc(CNc2cnc3n(c2=O)[C@@H](C(=O)NCc2ccc(N)nc2C)CC3)c1 [Compound 78] | 2500 to 10000 | > 25000 |
| Cc1nc(N)ccc1CNC(=O)[C@@H]1CCc2ncc(NCc3cccc(C(F)(F)F)c3F)c(=O)n21 [Compound 42, (S)-N-((6-amino-2-methylpyridin-3-yl)methyl)-3-((2-fluoro-3-(trifluoromethyl)benzyl)amino)-4-oxo-4,6,7,8-tetrahydro-pyrrolo[1,2-a]pyrimidine-6-carboxamide, di-trifluoroacetate] | < 500 | 500 to 2500 |
| Cc1cc(C)cc(CNc2cnc3n(c2=O)[C@H](C(=O)NCc2ccnc(C)c2)CC3)c1 [Compound 19, (S)-3-((3,5-dimethylbenzyl)amino)-N-((2-methylpyridin-4-yl)methyl)-4-oxo-4,6,7,8-tetrahydropyrrolo[1,2-a]pyrimidine-6-carboxamide] | 500 to 2500 | > 25000 |
| COc1cccc(CNc2cnc3n(c2=O)[C@H](C(=O)NCc2ccc(N)nc2C)CC3)c1C [Compound 48, (S)-N-((6-amino-2-methylpyridin-3-yl)methyl)-3-((3-methoxy-2-methylbenzyl)amino)-4-oxo-4,6,7,8-tetrahydropyrrolo[1,2-a]pyrimidine-6-carboxamide, trifluoroacetate] | < 500 | 500 to 2500 |
| Cc1cc(C)cc(CNc2cnc3n(c2=O)[C@@H](C(=O)NCc2ccc(N)nc2)CC3)c1 [Compound 79] | < 500 | > 25000 |
| Cc1cc(C)cc(CNc2cnc3n(c2=O)[C@H](C(=O)NCc2cccnc2C)CC3)c1 [Compound 23, (S)-3-((3,5-dimethylbenzyl)amino)-N-((2-methylpyridin-3-yl)methyl)-4-oxo-4,6,7,8-tetrahydropyrrolo[1,2-a]pyrimidine-6-carboxamide, trifluoroacetate] | 2500 to 10000 | > 25000 |
| Cc1nc(N)ccc1CNC(=O)[C@@H]1CCc2ncc(NCc3cccc(C#N)c3)c(=O)n21 [Compound 73, (S)-N-((6-amino-2-methylpyridin-3-yl)methyl)-3-((3-cyanobenzyl)amino)-4-oxo-4,6,7,8-tetrahydropyrrolo[1,2-a]pyrimidine-6-carboxamide] | < 500 | 500 to 2500 |
| Cc1cc(C)cc(CNc2cnc3n(c2=O)[C@H](C(=O)NCc2cc4c(s2)CNC4)CC3)c1 [Compound 21, (S)—N-((5,6-dihydro-4H-thieno[2,3-c]pyrrol-2-yl)methyl)-3-((3,5-dimethylbenzyl)amino)-4-oxo-4,6,7,8-tetrahydropyrrolo[1,2-a]pyrimidine-6-carboxamide, trifluoroacetate] | < 500 | 2500 to 10000 |
| Cc1nc(N)ccc1CNC(=O)[C@@H]1CCc2ncc(NCc3cccc4c3OCCO4)c(=O)n21 [Compound 14, (S)-N-((6-amino-2-methylpyridin-3-yl)methyl)-3-(((2,3-dihydrobenzo[b][1,4]dioxin-5-yl)methyl)amino)-4-oxo-4,6,7,8-tetrahydropyrrolo[1,2-a]pyrimidine-6-carboxamide] | < 500 | 2500 to 10000 |
| Cc1cc(C)cc(CNc2cnc3n(c2=O)[C@H](C(=O)NCc2cc4cnc(C)cc4[nH]2)CC3)c1 [Compound 7, (S)-3-((3,5-dimethylbenzyl)amino)-N-((6-methyl-1H-pyrrolo[3,2-c]pyridin-2-yl)methyl)-4-oxo-4,6,7,8-tetrahydropyrrolo[1,2-a]pyrimidine-6-carboxamide, trifluoroacetate] | < 500 | > 25000 |
| Cc1cc(C)cc(CNc2cnc3n(c2=O)[C@H](C(=O)N[C@@H](C)c2ccc(N)nc2)CC3)c1 [Compound 15, (S)—N—((S)-1-(6-aminopyridin-3-yl)ethyl)-3-((3,5-dimethylbenzyl)amino)-4-oxo-4,6,7,8-tetrahydropyrrolo[1,2-a]pyrimidine-6-carboxamide] | < 500 | > 25000 |
| Cc1nc(N)ccc1CNC(=O)[C@@H]1CCc2ncc(NCc3cc(C(F)(F)F)ccc3F)c(=O)n21 [Compound 38, (S)-N-((6-amino-2-methylpyridin-3-yl)methyl)-3-((2-fluoro-5-(trifluoromethyl)benzyl)amino)-4-oxo-4,6,7,8-tetrahydro-pyrrolo[1,2-a]pyrimidine-6-carboxamide, di-trifluoroacetate] | < 500 | 2500 to 10000 |
| COc1cc(Cl)cc(CNc2cnc3n(c2=O)[C@@H](C(=O)N[C@H](C)c2ccc(N)nc2)CC3)c1 [Compound 77, (R)-N-((R)-1-(6-aminopyridin-3-yl)ethyl)-3-((3-chloro-5-methoxybenzyl)amino)-4-oxo-4,6,7,8-tetrahydropyrrolo[1,2-a]pyrimidine-6-carboxamide] | < 500 | > 25000 |
| Cc1nc(N)ccc1CNC(=O)[C@@H]1CCc2ncc(NCc3cc(OC(F)(F)F)ccc3F)c(=O)n21 [Compound 41, (S)-N-((6-amino-2-methylpyridin-3-yl)methyl)-3-((2-fluoro-5-(trifluoromethoxy)benzyl)amino)-4-oxo-4,6,7,8-tetrahydro-pyrrolo[1,2-a]pyrimidine-6-carboxamide, di-trifluoroacetate] | < 500 | 500 to 2500 |
| Cc1nc(N)ccc1CNC(=O)[C@@H]1CCc2ncc(NCc3ccc(C(F)(F)F)cc3F)c(=O)n21 [Compound 43, (S)-N-((6-amino-2-methylpyridin-3-yl)methyl)-3-((2-fluoro-4-(trifluoromethyl)benzyl)amino)-4-oxo-4,6,7,8-tetrahydro-pyrrolo[1,2-a]pyrimidine-6-carboxamide, di-trifluoroacetate] | < 500 | 2500 to 10000 |
